Data set [1] relates to Influenza A H5N1. It counts as cell-based, Influenza A H5N1 (isolated in 1997 from human).
The test system of data set [2] is Influenza A H5N1. It counts as cell-based, Influenza A H5N1 (isolated in 1997 from human). The source holds these as a separate data set.
For data set [3], the system named is Influenza A H5N1. It counts as cell-based, Influenza A H5N1 (isolated in 1997 from human). This is another data set of the same source.
The test system of data set [4] is MDCK cells.
In data set [5] the test system is MDCK cells. The source holds these as a separate data set.
Data set [6] relates to MDCK cells. The source holds these as a separate data set.

Like-named read-outs stand apart in the source and are kept apart here.

In the data set on Influenza A H5N1 [1], `NC(=O)c1ncn([C@@H]2O[C@H](CO)[C@@H](O)[C@H]2O)n1` [RIBAVIRIN, Ribavirin, reference compound] showed a Number of plaques of 11000. The compound further registered a No. of plaque in the data set with Influenza A H5N1 [2] of 0. For the same compound, in the data set with Influenza A H5N1 [3], the “No. of plaque 1st well” value amounted to 134, the “No. of plaque 2nd well” value is listed as 131 and the “No. of plaque 3rd well” value is listed as 132. Besides, the “Cytotoxicity in virus yield reduction assay” value in the data set with MDCK cells [4] is “No”. In the data set with MDCK cells [5], the Cytotoxicity result is given as “No”. Also, the Cytotoxicity entry in the data set with MDCK cells [6] is “No”.

(Values after US20090318379A1, “Statins for the Treatment of Viral Influenza Infections” (priority 2006, published 2009).)
